Data from patent publication US20080064668A1, “1,3-Diacylated, 26,27-Alkyl/Haloakyl Vitamin D3 Compounds and Methods of Use Thereof” (BioXell S.p.A., priority 2003, published 2008).

What was measured:
[1] = MTD in CD1 mouse (highest non-hypercalcemic dose); details: in vivo
[2] = system: Human BPH cells; experiment: BPH cell proliferation assay (testosterone-induced); assay type: cell-based; details: 48 h
Procedure: Human BPH cells, prepared, maintained and used as previously described in Crescioli C, et al. Journal of Clinical and Endocrinology Metabolism (2000) 85 p 2576-2583, were obtained from prostate tissues derived from 5 patients, who underwent suprapubic adenomectomy for BPH, after informed consent and approval by the Local Ethical Committee.
For all cell proliferation assays, 4×10^4 BPH cells were seeded onto 12-well plates in their growth medium, starved in red- and serum-free medium containing 0.1% BSA for 24 h, and then treated with specific stimuli for 48 h. Cells in phenol red- and serum-free medium containing 0.1% BSA were used as controls. Thereafter, cells were trypsinized, and each experimental point was derived from hemocytometer counting, averaging at least six different fields for each well, as previously reported (see Crescioli C, et al. Journal of Clinical and Endocrinology Metabolism (2000) 85 p 2576-2583).
Growth assays were also carried out using a fixed concentration of androgens (10 nM) with or without vitamin-D analogs (1 nM, 10 nM) or the anti-androgens finasteride (F, 1 nM) and cyproterone acetate (Cyp, 100 nM. Growth assays were also performed using a fixed concentration of T (10 nM) or GFs (10 ng/ml) with or without the vitamin-D analogs. (10 nM).
In the same experiment, each experimental point was repeated in triplicate or quadruplicate and experiments were performed 3 times. Results are expressed as % variation (mean±SEM) over the maximal T or GF-induced stimulation.

[3] = system: RT4; experiment: Proliferation assay using bladder cancer cell lines, RT4; assay type: cell-based, human; details: Homo sapiens, 72 h culture, CyQuant proliferation assay
Procedure: (§1) Bladder cancer cell lines (T24, RT112, HT1376 and RT4 are human bladder cancer cell lines; NHEK are normal human keratinocytes) were obtained from the European Collection of Cell Cultures (Salisbury, UK). Cells were plated at 3×10^3 per well, in flat bottomed 96-well plates in 100 μl of DMEM medium containing: 5% Fetal Clone I, 50 μg/l gentamicin, 1 mM sodium pyruvate and 1% non-essential amino acids. After culturing for 24 h at 37° C. in 5% CO2, to allow cells to adhere to the plates, VDR ligands (compounds (2), (4), (5) and other vitamin D3 analogs as shown in Table 4) were added at concentrations ranging from 100 μM to 0.3 μM in 100 μl of above-mentioned complete medium. After a further 72 h of culture, cell proliferation was measured using a fluorescence-based proliferation assay kit. (CyQuant Cell Proliferation Assay Kit, Molecular Probes, Eugene, Oreg., USA). The IC50 was calculated from the regression curve of the titration data.

[4] = system: HT 1376; experiment: Proliferation assay using bladder cancer cell lines, HT1376; assay type: cell-based, human; details: Homo sapiens, HT-1376; 72 h culture, CyQuant proliferation assay
Procedure: as §1

[5] = system: IFN-γ production; experiment: IFN-γ production in the mixed leukocyte response (MLR); assay type: cell-based; details: 120 h; allogeneic PBMC from 2 donors, 5 days, ELISA; read-out: INF-γ IC50
Procedure: Immature dendritic cells (DC) were prepared as described in Romani, N. et al. (Romani, N. et al. (1996) J. Immunol. Meth. 196:137). IFN-γ production by allogeneic T cell activation in the mixed leukocyte response (MLR) was determined as described in Penna, G., et al., J Immunol., 164: 2405-2411 (2000).
Briefly, peripheral blood mononuclear cells (PBMC) were separated from buffy coats by Ficoll gradient and the same number (3×10^5) of allogeneic PBMC from 2 different donors were co-cultured in 96-well flat-bottom plates. The vitamin D3 compounds were added to each of the cultures.

[6] = system: RT112; experiment: Proliferation assay using bladder cancer cell lines, RT112; assay type: cell-based, human; details: Homo sapiens, 72 h culture, CyQuant proliferation assay
Procedure: as §1

[7] = system: ECV; experiment: Proliferation assay using bladder cancer cell lines, ECV; assay type: cell-based, human; details: Homo sapiens; 72 h culture, CyQuant proliferation assay
[8] = Determination of Maximum Tolerated Dose (MTD); details: female, C57BL/6, mouse, in vivo, po
Procedure: The maximum tolerated dose of the vitamin D3 compounds of the invention were determined in eight week-old female C57BL/6 mice (3 mice/group) dosed orally (0.1 ml/mouse) with various concentrations of Vitamin D3 analogs daily for four days. Analogs were formulated in miglyol for a final concentration of 0.01, 0.03, 0.1 0.3, 1, 3, 10, 30, 100 and 300 μg/kg when given at 0.1 ml/mouse p.o. daily. Blood for serum calcium assay was drawn by tail bleed on day five, the final day of the study.

[9] = system: NHEK; experiment: Proliferation assay, NHEK normal human keratinocytes; assay type: cell-based; details: Homo sapiens, NHEK; 72 h culture, CyQuant proliferation assay
Procedure: as §1

[10] = Maximum tolerated dose (MTD) in rats (Table 7); details: rat, in vivo
Text: (§2) The maximum tolerated dose (MTD) in rats is also listed for each compound (Table 7).

[11] = system: human stromal bladder cells; experiment: Inhibition of basal human bladder cell growth; assay type: cell-based
Text: The Inventors confirmed the presence of vitamin D receptors (VDRs), as previously reported in the literature, on these cells (see below in FIG. 3).
as §2

SMILES | MTD [1] | IC50 [2] | IC50 ([3]; RT-4, 72 h) | IC50 [4] | IC50 [5] | IC50 ([6]; RT-112, 72 h) | IC50 [7] | MTD at 4 days [8] | IC50 [9] | MTD [10] | IC50 ([11]; Homo sapiens) | IC50 ([3]; RT-4) | IC50 ([6]; RT-112) | inhibiting the basal growth of bladder cells ([11]; human stromal bladder cells in culture)
C=C1/C(=C\C=C2/CCC[C@]3(C)C(C(C)CC#CC(C)(C)O)=CCC23)CC(OC(C)=O)C[C@@H]1OC(C)=O (stereo partly drawn) [(7), 1,3-Di-O-acetyl-1,25-dihydroxy-16-ene-23-yne-cholecalciferol] | 0.01 mg/kg | 42.7 µM | 80 µM | > 100 µM | 0.051 nM | 3 µM | 27.7 µM | 0.01 mg/kg | 4.8 µM | – | – | – | – | –
C=C1/C(=C\C=C2/CCC[C@]3(C)C(C(C)CC#CC(O)(C(F)(F)F)C(F)(F)F)=CCC23)CC(OC(C)=O)C[C@@H]1OC(C)=O (stereo partly drawn) [(14), 1,3-Di-O-acetyl-1,25-dihydroxy-16-ene-23-yne-26,27-hexafluoro-cholecalciferol] | 0.01 mg/kg | 501 µM | 19 µM | > 100 µM | 0.0273 nM | 26 µM | > 100 µM | 0.01 mg/kg | 0.98 µM | – | – | – | – | –
CC(=O)OC1C/C(=C/C=C2\CCC[C@@]3(C)C2CCC3C2(CC#CC(OC(C)=O)(C(F)(F)F)C(F)(F)F)CC2)C[C@@H](OC(C)=O)C1 (stereo partly drawn) [(26), 1,3,25-Tri-O-acetyl-1,25-dihydroxy-20-cyclopropyl-23-yne-26,27-hexafluoro-19-nor-cholecalciferol] | 0.01 mg/kg | > 100000 µM | 5 µM | > 100 µM | 0.922 nM | 15 µM | 63.5 µM | 0.01 mg/kg | 32.8 µM | – | – | – | – | –
CC(=O)OC1C/C(=C/C=C2\CCC[C@@]3(C)C2CCC3C2(CC#CC(O)(C(F)(F)F)C(F)(F)F)CC2)C[C@@H](OC(C)=O)C1 (stereo partly drawn) [(27), 1,3-Di-O-acetyl-1,25-dihydroxy-20-cyclopropyl-23-yne-26,27-hexafluoro-19-nor-cholecalciferol] | 0.01 mg/kg | 0.000794 µM | – | 43 µM | 0.078 nM | – | 25.5 µM | 0.01 mg/kg | 2.6 µM | – | – | – | – | –
C=C1/C(=C\C=C2/CCC[C@@]3(C)C2CCC3C2(CC#CC(C)(C)O)CC2)CC(OC(C)=O)C[C@@H]1OC(C)=O (stereo partly drawn) [(29), 1,3-Di-O-acetyl-1,25-dihydroxy-20-cyclopropyl-23-yne-cholecalciferol] | 0.03 mg/kg | 0.00316 µM | 13 µM | 80 µM | 0.0078 nM | 8 µM | 49.6 µM | 0.03 mg/kg | 5.9 µM | 0.03 mg/kg | < 10 mM | – | – | –
C=C1/C(=C\C=C2/CCC[C@@]3(C)C2CCC3C(C)CC#CC(C)(C)O)CC(OC(C)=O)C[C@@H]1OC(C)=O (stereo partly drawn) [(41), 1,3-Di-O-acetyl-1,25-dihydroxy-23-yne-cholecalciferol] | 0.001 mg/kg | 0.000724 µM | 85 µM | > 100 µM | 0.08 nM | 8 µM | 40 µM | 0.001 mg/kg | 4.2 µM | – | – | – | – | –
C=C1/C(=C\C=C2/CCC[C@]3(C)[C@@H]([C@H](C)CCCC(C)(C)O)CC[C@@H]23)C[C@@H](O)C[C@@H]1O [Calcitriol, 1,25-dihydroxycholecalciferol, reference compound] | 0.001 mg/kg | 0.0851 µM | – | 50 µM | 0.022 nM | – | – | 0.001 mg/kg | 4.9 µM | – | – | 45 µM | 19 µM | effective
